Active and inactive are the calls of the source.
What was measured:
Melanocortin receptor 4 = Melanocortin receptor 4 (Homo sapiens, UniProt P32245); assay type: functional, cell-based;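 note: Cell-based assay with luminescence read-out, confirmatory dose-response testing for agonist activity of biased ligands at MC4R; human U2OS cells with tagged receptor and beta-arrestin; potency of agonists that increase receptor coupling to beta-arrestin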
[1] = HepG2 cell cytotoxicity, dose response, cytotoxicity control, plate reader, cherry-pick, antagonist series (AID 743416); assay type: functional, cell-based
Integrin alpha-4 = Integrin alpha-4 (Homo sapiens, UniProt P13612); experiment: VLA-4 integrin allosteric ligands, SAR follow-up, cell-based, LIBS antibody binding, flow cytometry (AID 488791); assay type: functional
[2] = molecular target: T1, Ubiquitin-conjugating enzyme E2 N (Homo sapiens, UniProt P61088); assay type: functional;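 note: Dose-response confirmation in a TR-FRET assay detecting UBC13-driven polyubiquitin chain formation, inhibition measured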
T1 sequence (P61088 whole entry): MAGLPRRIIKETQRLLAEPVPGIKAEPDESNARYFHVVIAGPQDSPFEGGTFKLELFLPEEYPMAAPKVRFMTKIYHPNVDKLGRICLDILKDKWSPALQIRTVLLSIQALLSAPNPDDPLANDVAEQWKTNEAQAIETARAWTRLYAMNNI

[3] = Luminescence Cell-Based Dose Retest to Confirm Inhibitors of Cancer Stem Cells. [Related pubchem assays (depositor defined):AID2717, AID2721]; assay type: functional; conditions: Homo sapiens
[4] = MC4R antagonists, dose response, counter-screen for LGR2 antagonist project, cell-based, plate reader, cherry pick (AID 743444); assay type: functional;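 note: transfected HEK 293 cells stimulated with alpha-MSH peptide; potency of inhibitors of the alpha-MSH evoked signal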
[5] = A549 cell cytotoxicity, dose response, cytotoxicity control, plate reader, cherry-pick, antagonist series (AID 743412); assay type: functional, cell-based
[6] = HEK293 cell cytotoxicity, dose response, cytotoxicity control, plate reader, cherry-picked samples (AID 743446); assay type: functional, cell-based
[7] = LGR2 antagonists, dose response, cell-based, HEK293, CRE-luciferase reporter, cherry pick, set 2 (AID 743343); assay type: functional;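 note: transfected cells were stimulated with diluted bursicon conditioned medium after compound addition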
[8] = molecular target: T2, E3 ubiquitin-protein ligase XIAP (Homo sapiens, UniProt P98170); experiment: Counter Screen using XIAP-Bir3 for Chemical Antagonists of Bir1/2 domains of IAP-family anti-apoptotic proteins. [Related pubchem assays (depositor defined):AID1018, AID1449, AID1514, AID1638, AID1749, AID1750, AID488957, AID488963]
[9] = molecular target: T2, E3 ubiquitin-protein ligase XIAP; experiment: XIAP antagonists, biochemical, IAP family, fluorescence polarization (AID 1018); assay type: functional
[10] = molecular target: Polyadenylate-binding protein 1 (Homo sapiens, UniProt P11940); experiment: PABP poly(A) RNA binding inhibitors, primary screen, biochemical, fluorescence polarization, uHTS (AID 2014)
[11] = molecular target: Eukaryotic translation initiation factor 4H (Homo sapiens, UniProt Q15056); experiment: human eIF4H binding inhibitors, primary screen, translation initiation inhibitor project, biochemical, uHTS, fluorescence polarization (AID 2012)
[12] = molecular target: T3, Voltage-gated N-type calcium channel alpha-1B subunit/Amyloid beta A4 precursor protein-binding family A member 1 (Homo sapiens, UniProt Q00975+Q02410); assay type: protein assay
[13] = molecular target: T3, Voltage-gated N-type calcium channel alpha-1B subunit/Amyloid beta A4 precursor protein-binding family A member 1; assay type: protein assay; remark: listed apart in the source
[14] = molecular target: Tyrosine-protein phosphatase non-receptor type 7 (Homo sapiens, UniProt P35236); experiment: SAR analysis of chemical inhibitors of HePTP using a Fluorescent assay - Set 2. [Related pubchem assays (depositor defined):AID1059, AID1077, AID1661, AID2085, AID521]; assay type: functional
[15] = molecular target: Dual specificity protein phosphatase 3 (Homo sapiens, UniProt P51452); experiment: SAR VHR1 Fluorescent Assay for In Vitro dose response studies Set 2. [Related pubchem assays (depositor defined):AID1654, AID1661, AID1878]; assay type: functional
[16] = molecular target: T4, Heat shock factor protein 1 (Mus musculus, UniProt P38532); experiment: inhibition of MG132-induced HSE-luciferase signal, confirmation, cell-based, NIH3T3, luminescence, dose retest (AID 2382); assay type: functional;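 note: NIH3T3 fibroblasts with HSF1-driven luciferase reporter stressed by proteasome inhibitor MG132; luminescence from HSF1-driven luciferase expression after 8 hours of MG132 stress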
T4 sequence (P38532 whole entry): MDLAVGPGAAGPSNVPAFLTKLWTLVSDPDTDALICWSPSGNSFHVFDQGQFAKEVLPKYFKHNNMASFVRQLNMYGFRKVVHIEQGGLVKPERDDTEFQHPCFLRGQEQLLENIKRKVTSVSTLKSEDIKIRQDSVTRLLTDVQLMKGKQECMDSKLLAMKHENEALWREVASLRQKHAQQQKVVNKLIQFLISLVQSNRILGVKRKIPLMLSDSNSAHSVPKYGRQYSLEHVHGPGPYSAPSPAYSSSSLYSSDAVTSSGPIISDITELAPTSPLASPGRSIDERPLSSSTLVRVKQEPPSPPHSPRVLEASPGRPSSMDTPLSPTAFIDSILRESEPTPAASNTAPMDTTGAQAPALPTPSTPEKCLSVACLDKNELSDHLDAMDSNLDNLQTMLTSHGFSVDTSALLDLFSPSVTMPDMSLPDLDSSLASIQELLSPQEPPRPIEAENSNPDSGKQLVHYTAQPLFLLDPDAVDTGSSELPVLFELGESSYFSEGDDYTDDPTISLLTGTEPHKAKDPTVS

[17] = molecular target: Runt-related transcription factor 1/Core-binding factor subunit beta (Homo sapiens, UniProt Q01196+Q13951); experiment: Confirmation of compounds inhibiting the binding between the RUNX1 Runt domain and CBFb-SMMHC via a fluorescence resonance energy transfer (FRET) assay. [Related pubchem assays (depositor defined):AID1434, AID1438, AID1496, AID1550, AID1645]; assay type: protein assay
[18] = molecular target: T5, Corticotropin-releasing factor receptor 2/Corticotropin-releasing factor-binding protein (Homo sapiens, UniProt P24387+Q13324); experiment: activators of CRF receptor 2 with binding protein – uHTS hits, confirmation (AID 602473); assay type: functional; conditions: read-out: EC50_Mean
T5 sequence (Q13324 whole entry): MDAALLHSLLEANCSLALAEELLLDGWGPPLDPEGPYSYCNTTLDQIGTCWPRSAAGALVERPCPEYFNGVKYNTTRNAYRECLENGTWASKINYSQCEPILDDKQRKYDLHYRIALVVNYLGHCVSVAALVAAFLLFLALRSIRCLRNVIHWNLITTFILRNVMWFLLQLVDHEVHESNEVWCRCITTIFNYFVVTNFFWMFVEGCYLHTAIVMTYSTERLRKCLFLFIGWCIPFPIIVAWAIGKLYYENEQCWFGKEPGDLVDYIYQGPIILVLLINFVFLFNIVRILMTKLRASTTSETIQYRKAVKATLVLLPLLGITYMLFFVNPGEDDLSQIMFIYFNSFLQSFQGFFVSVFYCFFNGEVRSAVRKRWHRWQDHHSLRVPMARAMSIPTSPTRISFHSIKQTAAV
T5 sequence (P24387 whole entry): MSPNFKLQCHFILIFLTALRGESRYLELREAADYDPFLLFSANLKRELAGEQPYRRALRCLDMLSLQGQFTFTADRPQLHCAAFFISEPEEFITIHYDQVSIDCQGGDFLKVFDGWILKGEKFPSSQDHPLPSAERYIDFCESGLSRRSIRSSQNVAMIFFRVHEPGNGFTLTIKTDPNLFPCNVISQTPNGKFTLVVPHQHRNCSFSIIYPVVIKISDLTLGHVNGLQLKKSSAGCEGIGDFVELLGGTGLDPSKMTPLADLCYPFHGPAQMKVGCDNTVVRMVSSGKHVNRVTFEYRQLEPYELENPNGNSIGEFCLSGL

T-cell = experiment: inhibitors of CD8+ T cell–vesicle binding, dose response, mouse 2C CD8+ T cells, flow cytometry (AID 485284); assay type: functional
[19] = THP-1 cell cytotoxicity, dose response, cytotoxicity control for non-replicating M. tuberculosis project (AID 489025); assay type: functional
[20] = control 3'UTR Renilla luciferase suppression, dose response, counter-screen for Shn3 inhibitor project, cell-based, Clone20-Shn3RL, cherry-picked (AID 624133); assay type: functional
Insulin-degrading enzyme [21] = molecular target: T6, Insulin-degrading enzyme (Homo sapiens, UniProt P14735); experiment: activators of endogenous IDE in HEK cells, dose response, cell-based, fluorescence polarization (AID 588439); assay type: functional
T6 sequence (P14735 whole entry): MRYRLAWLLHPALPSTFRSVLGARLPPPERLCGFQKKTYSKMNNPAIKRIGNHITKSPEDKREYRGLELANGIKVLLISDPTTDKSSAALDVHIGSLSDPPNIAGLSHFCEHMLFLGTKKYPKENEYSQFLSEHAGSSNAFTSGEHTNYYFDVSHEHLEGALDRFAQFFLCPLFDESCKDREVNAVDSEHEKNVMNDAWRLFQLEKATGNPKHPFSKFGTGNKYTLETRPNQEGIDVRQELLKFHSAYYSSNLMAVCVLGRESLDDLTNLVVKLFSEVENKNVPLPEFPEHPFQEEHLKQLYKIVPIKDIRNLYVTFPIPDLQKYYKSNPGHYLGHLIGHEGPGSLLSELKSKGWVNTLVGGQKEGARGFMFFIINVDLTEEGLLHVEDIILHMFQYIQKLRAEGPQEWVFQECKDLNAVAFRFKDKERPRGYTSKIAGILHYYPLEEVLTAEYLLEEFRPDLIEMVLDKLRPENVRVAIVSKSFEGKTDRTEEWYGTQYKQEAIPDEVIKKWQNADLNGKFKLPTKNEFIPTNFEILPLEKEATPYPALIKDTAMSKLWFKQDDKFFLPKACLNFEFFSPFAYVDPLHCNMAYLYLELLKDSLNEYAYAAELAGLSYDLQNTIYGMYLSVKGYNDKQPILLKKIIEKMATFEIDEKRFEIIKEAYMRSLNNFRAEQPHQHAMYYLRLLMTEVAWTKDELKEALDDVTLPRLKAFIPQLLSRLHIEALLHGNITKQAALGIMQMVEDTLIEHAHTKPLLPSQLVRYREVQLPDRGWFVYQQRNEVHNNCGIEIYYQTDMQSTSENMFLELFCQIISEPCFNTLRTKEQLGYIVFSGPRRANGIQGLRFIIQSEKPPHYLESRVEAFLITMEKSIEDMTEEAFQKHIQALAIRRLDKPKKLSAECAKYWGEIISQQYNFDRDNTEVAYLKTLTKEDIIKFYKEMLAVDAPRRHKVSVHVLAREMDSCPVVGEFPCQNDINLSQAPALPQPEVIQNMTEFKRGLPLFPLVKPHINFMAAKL

[22] = Vero E6 cell cytotoxicity, dose response, cytotoxicity control for non-replicating M. tuberculosis project, secondary assay (AID 492998); assay type: functional, VeroE6; conditions: Vero C1008
[23] = HepG2 cell cytotoxicity, dose response, cytotoxicity control for Shn3 inhibitor project, CellTiter-Glo, cherry-picked (AID 624134); assay type: functional, cell-based
[24] = microbe, parasite or virus in culture; assay type: functional; conditions: Mycobacterium tuberculosis
cells = assay type: functional
Insulin-degrading enzyme [25] = molecular target: T6, Insulin-degrading enzyme; experiment: activators of recombinant IDE enzyme, dose response, counter-screen for IDE activator project, biochemical, fluorescence polarization (AID 588681)
[26] = Shn3 3'UTR reporter inhibitors, dose response, cell-based, Clone20 osteoblasts, firefly luciferase, cherry-picked (AID 624132); assay type: functional;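 note: firefly luciferase luminescence from reporter carrying the Shn3 3'UTR in osteoblasts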
HEK293 [27] = experiment: HEK cell cytotoxicity by LDH release, dose response, cytotoxicity control for IDE activator project, fluorescence, HEK cells (AID 588440); assay type: functional, cell-based; conditions: Homo sapiens;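 note: cytotoxicity by LDH release measuring loss of membrane integrity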
[28] = HepG2 cell cytotoxicity, dose response, cytotoxicity control for non-replicating M. tuberculosis project (AID 489018); assay type: functional; conditions: Mycobacterium tuberculosis
HEK293 [29] = experiment: optical interference in Abeta FP readout, dose response, artefact control for IDE activator project, biochemical, fluorescence polarization (AID 588442); assay type: functional, cell-based; conditions: Homo sapiens
[30] = molecular target: Voltage-dependent T-type calcium channel subunit alpha-1H (Homo sapiens, UniProt O95180); experiment: Cav3.2 T-type channel inhibitors, synthesized analogs, SAR follow-up, cell-based, synthetic library set 2, HEK293 HH8, Fluo-4 (AID 493023); assay type: functional

T2 sequence (P98170 whole entry): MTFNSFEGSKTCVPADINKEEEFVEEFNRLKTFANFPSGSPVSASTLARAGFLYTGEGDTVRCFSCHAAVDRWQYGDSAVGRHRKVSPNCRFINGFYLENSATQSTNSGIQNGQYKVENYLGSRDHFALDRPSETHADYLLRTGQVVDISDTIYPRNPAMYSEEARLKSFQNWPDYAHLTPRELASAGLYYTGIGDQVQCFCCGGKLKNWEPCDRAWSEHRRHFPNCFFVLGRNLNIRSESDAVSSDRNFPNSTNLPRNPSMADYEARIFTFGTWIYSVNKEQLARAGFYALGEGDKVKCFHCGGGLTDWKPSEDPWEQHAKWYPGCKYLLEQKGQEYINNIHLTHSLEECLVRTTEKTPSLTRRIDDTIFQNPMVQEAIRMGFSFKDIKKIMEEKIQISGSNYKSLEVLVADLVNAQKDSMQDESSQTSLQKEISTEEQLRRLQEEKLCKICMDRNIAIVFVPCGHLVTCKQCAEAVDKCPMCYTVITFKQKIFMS
T3 sequence (Q00975 whole entry): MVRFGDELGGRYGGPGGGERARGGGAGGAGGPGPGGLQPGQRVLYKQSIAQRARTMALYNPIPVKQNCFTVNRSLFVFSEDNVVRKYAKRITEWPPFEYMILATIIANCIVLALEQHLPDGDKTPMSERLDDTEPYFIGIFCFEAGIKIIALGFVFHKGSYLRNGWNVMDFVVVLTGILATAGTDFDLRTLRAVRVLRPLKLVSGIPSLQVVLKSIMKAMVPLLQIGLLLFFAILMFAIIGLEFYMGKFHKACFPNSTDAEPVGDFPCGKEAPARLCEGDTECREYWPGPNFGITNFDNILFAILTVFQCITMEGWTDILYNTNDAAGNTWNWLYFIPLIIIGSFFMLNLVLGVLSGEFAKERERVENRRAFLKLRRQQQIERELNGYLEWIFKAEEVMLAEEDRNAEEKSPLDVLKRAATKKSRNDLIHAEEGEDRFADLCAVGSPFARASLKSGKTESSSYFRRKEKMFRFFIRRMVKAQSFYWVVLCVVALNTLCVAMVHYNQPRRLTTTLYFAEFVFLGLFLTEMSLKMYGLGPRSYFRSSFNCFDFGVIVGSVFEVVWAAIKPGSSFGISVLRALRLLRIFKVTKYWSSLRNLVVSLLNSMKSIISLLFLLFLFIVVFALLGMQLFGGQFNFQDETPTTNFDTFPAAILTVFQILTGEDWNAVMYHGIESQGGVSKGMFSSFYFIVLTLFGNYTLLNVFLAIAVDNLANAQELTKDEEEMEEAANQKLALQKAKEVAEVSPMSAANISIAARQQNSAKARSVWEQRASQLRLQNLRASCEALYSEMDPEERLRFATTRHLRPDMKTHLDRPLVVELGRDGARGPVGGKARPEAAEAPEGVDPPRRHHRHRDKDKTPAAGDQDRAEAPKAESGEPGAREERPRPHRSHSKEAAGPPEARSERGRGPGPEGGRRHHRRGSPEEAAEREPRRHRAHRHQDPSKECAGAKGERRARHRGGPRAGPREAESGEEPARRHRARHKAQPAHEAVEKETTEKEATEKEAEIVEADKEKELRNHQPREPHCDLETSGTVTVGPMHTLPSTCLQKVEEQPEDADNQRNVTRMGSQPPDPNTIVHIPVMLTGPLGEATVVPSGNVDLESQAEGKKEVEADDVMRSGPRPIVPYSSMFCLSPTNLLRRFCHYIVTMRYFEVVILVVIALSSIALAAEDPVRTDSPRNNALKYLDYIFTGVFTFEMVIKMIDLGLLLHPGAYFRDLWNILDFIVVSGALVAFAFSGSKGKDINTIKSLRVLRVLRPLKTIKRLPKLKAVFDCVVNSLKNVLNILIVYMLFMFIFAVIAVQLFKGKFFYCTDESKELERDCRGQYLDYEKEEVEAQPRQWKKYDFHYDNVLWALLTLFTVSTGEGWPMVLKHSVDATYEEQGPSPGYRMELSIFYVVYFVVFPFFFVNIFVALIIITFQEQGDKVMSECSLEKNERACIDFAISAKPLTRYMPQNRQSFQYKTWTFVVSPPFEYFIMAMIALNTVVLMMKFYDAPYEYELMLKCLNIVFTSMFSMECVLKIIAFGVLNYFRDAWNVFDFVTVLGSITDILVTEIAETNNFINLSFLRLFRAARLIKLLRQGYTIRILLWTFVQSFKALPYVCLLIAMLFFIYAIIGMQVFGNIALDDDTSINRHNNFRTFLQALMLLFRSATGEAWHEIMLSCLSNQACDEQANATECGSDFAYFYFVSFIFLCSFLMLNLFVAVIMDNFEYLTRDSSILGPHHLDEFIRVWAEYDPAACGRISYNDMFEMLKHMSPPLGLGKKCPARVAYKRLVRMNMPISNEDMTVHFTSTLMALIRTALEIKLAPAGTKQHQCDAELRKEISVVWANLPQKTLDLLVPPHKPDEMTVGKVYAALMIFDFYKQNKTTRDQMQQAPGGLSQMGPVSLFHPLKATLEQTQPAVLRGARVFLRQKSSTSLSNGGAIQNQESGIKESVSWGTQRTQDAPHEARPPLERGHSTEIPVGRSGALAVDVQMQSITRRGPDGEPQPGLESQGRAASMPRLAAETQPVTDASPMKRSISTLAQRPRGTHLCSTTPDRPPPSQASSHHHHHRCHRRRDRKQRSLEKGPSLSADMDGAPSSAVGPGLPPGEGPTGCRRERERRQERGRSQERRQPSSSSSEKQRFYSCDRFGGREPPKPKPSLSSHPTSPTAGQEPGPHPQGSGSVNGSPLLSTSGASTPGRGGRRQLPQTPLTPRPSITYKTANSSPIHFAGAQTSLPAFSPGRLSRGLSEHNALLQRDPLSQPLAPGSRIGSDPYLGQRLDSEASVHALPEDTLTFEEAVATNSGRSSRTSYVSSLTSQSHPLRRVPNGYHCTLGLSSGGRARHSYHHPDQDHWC
T3 sequence (Q02410 whole entry): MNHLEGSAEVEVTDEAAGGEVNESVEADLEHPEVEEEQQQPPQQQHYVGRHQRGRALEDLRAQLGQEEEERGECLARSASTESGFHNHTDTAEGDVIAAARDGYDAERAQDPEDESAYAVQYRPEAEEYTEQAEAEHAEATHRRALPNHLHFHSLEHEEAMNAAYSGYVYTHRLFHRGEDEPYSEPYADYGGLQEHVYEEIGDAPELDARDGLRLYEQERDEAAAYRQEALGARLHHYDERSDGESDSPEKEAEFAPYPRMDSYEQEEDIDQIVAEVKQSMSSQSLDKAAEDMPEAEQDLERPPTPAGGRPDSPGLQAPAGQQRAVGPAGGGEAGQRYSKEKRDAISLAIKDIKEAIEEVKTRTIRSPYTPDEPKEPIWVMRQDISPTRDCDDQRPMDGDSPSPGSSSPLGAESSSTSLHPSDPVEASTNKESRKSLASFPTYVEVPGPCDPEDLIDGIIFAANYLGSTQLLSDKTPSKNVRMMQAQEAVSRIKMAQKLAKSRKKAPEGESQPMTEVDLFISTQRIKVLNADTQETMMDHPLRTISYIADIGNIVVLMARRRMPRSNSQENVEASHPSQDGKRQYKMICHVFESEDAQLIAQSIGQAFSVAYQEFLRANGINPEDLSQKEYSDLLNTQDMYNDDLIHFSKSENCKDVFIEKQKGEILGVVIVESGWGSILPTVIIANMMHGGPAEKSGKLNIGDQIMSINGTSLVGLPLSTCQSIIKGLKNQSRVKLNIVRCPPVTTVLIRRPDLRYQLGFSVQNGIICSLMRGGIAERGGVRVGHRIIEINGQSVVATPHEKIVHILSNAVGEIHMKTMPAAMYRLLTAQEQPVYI
Chain of Integrin alpha-4 (P13612 whole entry): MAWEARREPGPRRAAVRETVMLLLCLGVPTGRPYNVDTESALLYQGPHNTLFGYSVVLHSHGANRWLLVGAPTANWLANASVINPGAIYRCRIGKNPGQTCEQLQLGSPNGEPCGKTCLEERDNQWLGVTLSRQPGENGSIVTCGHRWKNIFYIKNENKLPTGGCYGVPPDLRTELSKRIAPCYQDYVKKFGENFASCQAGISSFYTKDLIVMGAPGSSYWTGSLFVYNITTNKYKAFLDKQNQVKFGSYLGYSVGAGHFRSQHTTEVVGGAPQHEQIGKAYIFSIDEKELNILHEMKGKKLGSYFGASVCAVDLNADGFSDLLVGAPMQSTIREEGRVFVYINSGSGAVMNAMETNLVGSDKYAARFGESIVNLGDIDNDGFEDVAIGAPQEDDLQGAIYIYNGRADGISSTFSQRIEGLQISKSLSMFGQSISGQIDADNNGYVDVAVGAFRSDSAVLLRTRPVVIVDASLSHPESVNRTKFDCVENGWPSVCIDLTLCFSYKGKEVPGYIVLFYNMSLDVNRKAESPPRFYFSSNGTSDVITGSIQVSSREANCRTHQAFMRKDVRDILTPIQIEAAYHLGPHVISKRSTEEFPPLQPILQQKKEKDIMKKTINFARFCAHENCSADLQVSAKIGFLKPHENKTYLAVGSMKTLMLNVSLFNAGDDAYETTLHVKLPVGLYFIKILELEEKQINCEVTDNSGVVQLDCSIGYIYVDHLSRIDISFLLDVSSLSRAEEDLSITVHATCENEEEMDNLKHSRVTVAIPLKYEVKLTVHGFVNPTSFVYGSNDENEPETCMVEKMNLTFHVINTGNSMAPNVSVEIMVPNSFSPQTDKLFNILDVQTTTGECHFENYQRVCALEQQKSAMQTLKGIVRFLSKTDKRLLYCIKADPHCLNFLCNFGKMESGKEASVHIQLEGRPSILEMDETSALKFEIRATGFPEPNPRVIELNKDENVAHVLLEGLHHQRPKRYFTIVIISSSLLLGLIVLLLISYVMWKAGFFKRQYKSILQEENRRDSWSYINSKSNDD

COc1cccc(-c2sc3ccccc3c2-c2ccc(OCCN(C)C)cc2)c1
EC50 (Melanocortin receptor 4): > 3.3 µM (active)
AC50 [1]: 8.01 µM (active)
EC50 (Integrin alpha-4): 29.1 µM (active)
IC50 [2]: > 20 µM (inactive)
AC50 [3]: 3.29 µM (active)
AC50 [4]: 11.7 µM (active)
AC50 [5]: 7.82 µM (active)
AC50 [6]: 15.2 µM (active)
AC50 [7]: 13 µM (active)

O=C1C2C3c4ccccc4C(c4ccccc43)C2C(=O)N1c1ccncc1 (stereo not given)
IC50 [8]: > 100 µM (inactive)
IC50 [9]: > 100 µM (not active)

CC(/C=C/c1ccco1)=N/NC(=O)Cc1cccs1
IC50 [10]: > 100 µM (inactive)
IC50 [11]: 23.6 µM (active)
IC50 [12]: 18.9 µM (active)
IC50 [13]: 24.6 µM (active)

CC(C)(C)c1cc(C(=S)NCc2ccc(F)c(C(F)(F)F)c2)cc(C(C)(C)C)c1
IC50 [14]: 27 µM (active)
IC50 [15]: 67.4 µM (active)

CCS(=O)(=O)Nc1ccc(-c2nc3cccnc3s2)cc1
EC50 [16]: 92.9 µM (active)
IC50 [17]: 12.8 µM (active)
EC50 [18]: > 53 µM (inactive)

Cc1ccc(/C=N/NC2=NC(=O)C(CC(=O)Nc3ccc(Cl)cc3)S2)o1 (stereo not given)
EC50 (T-cell): 15.2 µM (active)

CCCCCCCNC(=O)C1(CC2CC(c3cccc(Br)c3)=NO2)CCNCC1 (stereo not given)
CC50 [19]: 6.82 µM (active)
AC50 [20]: 16.5 µM (active)
EC50 (Insulin-degrading enzyme [21]): 54.5 µM (inactive)
CC50 [22]: 15.2 µM (active)
AC50 [23]: 14.1 µM (active)
IC50 [2]: > 20 µM (inactive)
CC50 [24]: 6.71 µM (active)
IC50 (cells): 17.2 µM (active)
EC50 (Insulin-degrading enzyme [25]): > 54.7 µM (inactive)
AC50 [26]: 11.7 µM (active)
IC50 (HEK293 [27]): 7.51 µM (active)
CC50 [28]: 5.99 µM (active)
EC50 (HEK293 [29]): > 55.9 µM (inactive)

O=C(COc1ccc(F)c(Cl)c1)N[C@H]1CCCN(Cc2ccccc2)C1
EC50 [30]: 10 µM (active)

— ChEMBL document CHEMBL1201862, “PubChem BioAssay data set” (2004)
